Experiments:
[1] = target: T1, recombinant GC (Cerezyme) (Homo sapiens, UniProt P04062, R534H); assay: recombinant GC activity assay; format: biochemical; conditions: tenfold molar excess of peptide, acid pH, relative to buffer control
T1 construct: purchased Genzyme Therapeutics, Boston, USA
T1 sequence (P04062 40-536 R534H): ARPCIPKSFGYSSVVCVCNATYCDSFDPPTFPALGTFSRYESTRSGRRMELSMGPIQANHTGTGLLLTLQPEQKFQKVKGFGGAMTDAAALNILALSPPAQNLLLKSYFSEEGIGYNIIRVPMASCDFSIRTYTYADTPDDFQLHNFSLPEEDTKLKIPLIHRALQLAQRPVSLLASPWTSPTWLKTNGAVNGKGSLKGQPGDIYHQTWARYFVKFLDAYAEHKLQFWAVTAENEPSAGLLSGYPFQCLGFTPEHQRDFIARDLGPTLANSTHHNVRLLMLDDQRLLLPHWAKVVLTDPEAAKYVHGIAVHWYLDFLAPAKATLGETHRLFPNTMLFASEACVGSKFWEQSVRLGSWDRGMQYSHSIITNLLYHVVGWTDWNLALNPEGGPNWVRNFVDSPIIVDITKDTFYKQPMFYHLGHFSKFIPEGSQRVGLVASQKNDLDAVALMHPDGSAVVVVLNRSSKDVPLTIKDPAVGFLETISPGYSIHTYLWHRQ
Description: (§1) Expression plasmids of LIMP-2 and human GC constructs were generated as described previously (1). For Western blotting nitrocellulose or PVDF membranes were used. EndoH/PNGaseF digests were performed according to manufacturer's instructions (New England Biolabs, Ipswich, USA). For co-immunoprecipitation experiments magnetic agarose G beads (Thermo Fisher Scientific, Waltham, USA) were utilized. Immunofluorescence studies were performed in cells as previously described (1, 3). Cellular co-localization of two proteins was determined by the Pearson's Index (35). Enzyme activity assays of cell lysates or recombinant protein were measured at acid pH using absorbent and fluorescent artificial substrates. For peptide studies, peptides were N-terminally tagged with biotin. If not stated otherwise, recombinant enzyme was incubated with a tenfold higher molarity of peptides. Conditions for pulldown experiments were kept at neutral pH. Protein modelling, molecular analyses, graphics and animations were performed with the UCSF Chimera package.
To determine the enzymatic activity of the recombinant enzymes, lyophilized enzymes were reconstituted in the NaPi buffer described above. The lyophilized samples of wild-type GC (Cerezyme®) and the custom-made recombinant N307S mutant enzyme contain 0.01% polysorbate 80 (Tween 80) (see prescription information for Cerezyme® at the website for Cerezyme®). As indicated in our experiments, the concentration of the detergent is sufficient to support active GC enzyme and to perform the in vitro GC activity assays without adding further detergents to the reaction mix. For enzyme activity assays of recombinant proteins, 0.1-0.2 nmol of GC (Cerezyme®; N370S) and LAMAN were used in the absence or presence of 10× the molar amount of LIMP-2-derived peptides (Table 1) or LIMP-2 ectodomain (1-2 nmol) (Table 3).
All activity assays were performed at acid pH.

[2] = target: T1, recombinant GC (Cerezyme); assay: peptide pulldown of recombinant GC; format: binding; conditions: biotinylated peptide, tenfold molar amount, neutral pH, streptavidin beads
Description: as §1
All peptides were purchased from jpt Peptide Technologies (Berlin, GER). […] The concentration of the peptides as well as the recombinant proteins was determined spectroscopically (Nanodrop 2000c; Thermo Fisher Scientific, Waltham, USA). […]

recombinant GC = target: T2, recombinant GC (Homo sapiens, UniProt P04062, R534H); assay: stabilization assay of recombinant GC at 37° C.; format: biochemical; conditions: recombinant GC incubated with peptide at 37° C.
T2 construct: purchased Genzyme Therapeutics, Boston, USA
T2 sequence (P04062 40-536 R534H): T1 sequence (P04062 40-536 R534H)
Description: Proteins were visualized by coomassie staining (CBB). […] See also FIG. 6.
To address the functional impact of the observed interaction between the helix 5 peptide and recombinant GC, we measured GC activity in the presence of a one- to tenfold molar excess of the helix 5 peptide. […] No effect on enzymatic activity after incubation with the helix 5 peptide or the LIMP-2 ectodomain could be found for recombinant α-mannosidase (LAMAN) further emphasizing the specificity of the helix 5 peptide on GC activity (FIG. 6E). […] To analyze if the increase in GC activity is due to stabilization of the enzyme, recombinant GC was incubated with the helix 5 and the control peptide at 37° C. and the activity of GC was measured at regular intervals (FIG. 3F).

[3] = tested on: endogenous GC in Cos 7 cells; conditions: biotinylated peptide, neutral pH
Description: For pulldown of endogenous and overexpressed GC from N2a cell lysates 20 nmol of LIMP-2-derived peptide (Helix 5 and 3×D) was incubated with 50 μl cell lysate at 4° C. overnight. The cells were harvested in EBC-buffer (Table 3). After blocking and equilibration of the streptavidin beads (see above) the cell lysate/peptide mixtures were added to the beads for 30 min. at room temperature. The supernatant was removed. After extensive washing of the beads with NaPhosphate buffer, the bound peptides and proteins were released from the beads by incubation with Laemmli buffer (see above). After centrifugation for 2 min. at 17,000×g the supernatant was removed (BOUND fraction) and subjected to SDS-Page and Western-blotting. An antibody against human GC (α-hGC, for details see Table 4) was used for detection.

Substance | increase of recombinant GC enzyme activity [1] | co-precipitation of recombinant GC [2] | time to complete loss of GC enzymatic activity (recombinant GC) [h] | co-precipitation of endogenous GC from cellular lysates [3]
Biotin-Ttds-KFERQLREDDEAMDKAYQQKLFVTHTVDEYGRKKRRQRRR [control 3×D TAT-peptide, reference compound] | comparable effect | – | – | –
Biotin-Ttds-LREDDEAMDKAYQQKLFVTHTVDE [3×D control peptide, reference compound] | did not increase | only the wild-type helix 5 peptide specifically co-precipitated | ≤ 72 | only the wild-type helix 5 peptide specifically co-precipitated
KRVQDVIERFWDFIDQLSINTFGK [random helical control peptide, reference compound] | not able to increase | – | – | –

Source: patent publication US10286038B2, “Lysosome membrane protein 2 (LIMP-2) based peptides and related uses” (Northwestern University, priority 2016, dated 2019)
